Reference: patent US12421228B2 (Mirati Therapeutics, Inc., priority 2019, dated 2025)

Target: purified human, His-tagged PRC2 complex (Homo sapiens (Human), UniProt O75530)
Assay: Hot Spot HMT assay, inhibition of PRC2 enzymatic activity
Assay type: biochemical
Settings: 10 nM PRC2 complex, 0.05 mg/ml core histone H3, 1 μM 3H-SAM, 1 hr at 30° C.; read-out: IC50, Inhibition of PRC2-mediated Enzymatic Activity
Procedure: Ten-point dose-response curves for compounds of the present invention were determined using a Hot Spot HMT assay (Reaction Biology Corp; see Horiuchi et al., Assay Drug Dev Technol. (2013) 4: 227-236 doi: 10.1089/adt.2012.480). The assay uses purified human, His-tagged PRC2 complex, including N-terminal His-tagged EZH2 enzyme, N-terminal Flag-tagged embryonic ectoderm development protein (EED), N-terminal His-tagged suppressor of zeste 12 (SUZ12), N-terminal His-tagged AEBP2, and N-terminal His-tagged RbAp48. In this assay, the transfer of the tritiated methyl group from radiolabeled S-adenosyl methionine (SAM) to purified core histone protein by EZH2 is quantitated after filtration to determine the activity of the core PRC2 complex in the presence and absence of compound.
Briefly, compounds of the present invention were solubilized in DMSO and a series of 10, three-fold serial dilutions were made for each compound in 15% DMSO. The initial starting concentration for the serial dilutions of each compound was 1.0 μM. Control samples lacking compound, EZH2 enzyme or various reaction components also were prepared and processed in parallel with compound test samples. SAH (S-(5-adenosyl)-L-homocysteine) was used as a positive control for assay validation.
An aliquot of each serial dilution of test compound was added to deep 384 well plate using Acoustic Technology instrument (Echo 550, LabCyte) containing reaction buffer (50 mM Tris-HCl (pH 8)), 0.01% Brij35, 1 mM EDTA, 1 mM DTT, 1 mM PMSF and 1% DMSO), 10 nM purified PRC2 complex and 0.05 mg/ml core histone H3 in a 5 μl volume. The reaction was mixed gently and then pre-incubated for 20 min at 30° C. The enzymatic reaction was initiated by adding 1 μM S-Adenosyl-L-[methyl-^3H]methionine and incubated for 1 hr at 30° C. After 1 hr, the reaction product was detected using a filter binding method and the amount of tritiated H3 core histone was quantitated using a scintillation counter. The IC50 value for each compound was determined from each 10-point dose-response curve using GraphPad Prism software and the results for compounds of present invention, including compounds of Formula (I) and Formula (II) are shown in Table 6. Key: A=<100 nM; B=>100 nM−<250 nM; and C=>250 nM.

Chain of purified human, His-tagged PRC2 complex (Q15910 whole entry): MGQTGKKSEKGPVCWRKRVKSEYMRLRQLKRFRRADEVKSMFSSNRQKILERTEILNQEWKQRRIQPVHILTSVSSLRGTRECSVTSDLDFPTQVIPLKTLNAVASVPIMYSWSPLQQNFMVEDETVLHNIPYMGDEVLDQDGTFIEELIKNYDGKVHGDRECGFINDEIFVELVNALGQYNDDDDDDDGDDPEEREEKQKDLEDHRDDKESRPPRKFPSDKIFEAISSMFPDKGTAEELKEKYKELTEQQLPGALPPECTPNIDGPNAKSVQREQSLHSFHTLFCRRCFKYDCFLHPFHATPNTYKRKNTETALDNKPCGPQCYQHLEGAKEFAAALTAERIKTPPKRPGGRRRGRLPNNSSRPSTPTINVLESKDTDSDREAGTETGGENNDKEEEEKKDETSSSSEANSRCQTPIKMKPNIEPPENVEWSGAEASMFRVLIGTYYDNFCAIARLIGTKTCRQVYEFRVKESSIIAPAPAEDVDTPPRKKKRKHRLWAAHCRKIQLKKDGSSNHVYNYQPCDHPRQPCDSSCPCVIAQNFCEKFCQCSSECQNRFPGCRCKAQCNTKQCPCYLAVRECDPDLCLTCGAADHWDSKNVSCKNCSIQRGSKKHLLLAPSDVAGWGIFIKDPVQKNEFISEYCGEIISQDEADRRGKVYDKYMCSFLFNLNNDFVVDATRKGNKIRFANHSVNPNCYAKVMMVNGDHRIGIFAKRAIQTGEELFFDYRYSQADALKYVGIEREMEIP
Chain of purified human, His-tagged PRC2 complex (O75530 whole entry): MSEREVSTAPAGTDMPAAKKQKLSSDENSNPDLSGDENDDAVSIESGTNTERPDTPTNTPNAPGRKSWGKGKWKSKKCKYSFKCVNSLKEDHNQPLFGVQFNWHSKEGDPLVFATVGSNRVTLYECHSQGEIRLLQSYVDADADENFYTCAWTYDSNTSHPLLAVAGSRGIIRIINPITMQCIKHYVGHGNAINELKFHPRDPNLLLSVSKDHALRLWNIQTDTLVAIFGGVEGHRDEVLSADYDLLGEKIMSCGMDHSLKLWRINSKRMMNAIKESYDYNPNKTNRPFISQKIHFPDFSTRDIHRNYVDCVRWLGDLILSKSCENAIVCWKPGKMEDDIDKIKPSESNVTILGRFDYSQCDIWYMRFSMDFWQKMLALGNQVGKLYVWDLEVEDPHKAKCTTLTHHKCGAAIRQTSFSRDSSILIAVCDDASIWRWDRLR
Chain of purified human, His-tagged PRC2 complex (Q15022 whole entry partner): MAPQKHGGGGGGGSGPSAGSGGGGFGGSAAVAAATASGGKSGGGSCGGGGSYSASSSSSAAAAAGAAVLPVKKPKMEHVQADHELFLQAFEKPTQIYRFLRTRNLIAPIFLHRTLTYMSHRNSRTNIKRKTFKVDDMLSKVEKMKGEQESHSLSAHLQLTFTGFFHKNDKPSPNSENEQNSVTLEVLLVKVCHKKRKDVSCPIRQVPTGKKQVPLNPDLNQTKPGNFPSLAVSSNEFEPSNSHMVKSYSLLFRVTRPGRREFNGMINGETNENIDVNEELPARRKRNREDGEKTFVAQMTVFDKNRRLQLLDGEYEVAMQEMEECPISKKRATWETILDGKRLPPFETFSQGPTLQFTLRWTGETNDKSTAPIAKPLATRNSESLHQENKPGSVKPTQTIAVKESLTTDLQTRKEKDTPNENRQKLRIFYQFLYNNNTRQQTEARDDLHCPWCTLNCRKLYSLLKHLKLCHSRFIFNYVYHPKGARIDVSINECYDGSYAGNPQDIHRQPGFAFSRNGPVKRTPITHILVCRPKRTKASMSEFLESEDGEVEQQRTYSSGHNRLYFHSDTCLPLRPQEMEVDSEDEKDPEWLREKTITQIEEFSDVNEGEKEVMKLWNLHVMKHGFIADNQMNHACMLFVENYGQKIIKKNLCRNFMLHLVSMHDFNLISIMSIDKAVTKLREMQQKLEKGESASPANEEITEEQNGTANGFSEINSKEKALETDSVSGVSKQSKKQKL
Chain of purified human, His-tagged PRC2 complex (Q6ZN18 whole entry partner): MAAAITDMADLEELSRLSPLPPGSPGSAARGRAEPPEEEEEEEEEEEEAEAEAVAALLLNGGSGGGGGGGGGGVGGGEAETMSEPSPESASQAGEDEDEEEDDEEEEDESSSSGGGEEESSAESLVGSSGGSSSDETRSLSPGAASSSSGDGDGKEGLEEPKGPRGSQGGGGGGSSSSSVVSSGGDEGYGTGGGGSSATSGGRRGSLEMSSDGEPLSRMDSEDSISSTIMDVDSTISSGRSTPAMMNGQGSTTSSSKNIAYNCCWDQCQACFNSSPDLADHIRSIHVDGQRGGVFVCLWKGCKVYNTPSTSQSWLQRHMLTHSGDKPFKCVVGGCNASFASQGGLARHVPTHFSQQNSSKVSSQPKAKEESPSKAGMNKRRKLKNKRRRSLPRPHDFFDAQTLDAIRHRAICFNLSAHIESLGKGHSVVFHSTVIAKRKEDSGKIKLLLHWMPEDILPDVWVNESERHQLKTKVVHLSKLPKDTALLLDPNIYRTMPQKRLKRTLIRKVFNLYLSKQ
Chain of purified human, His-tagged PRC2 complex (Q09028 whole entry partner): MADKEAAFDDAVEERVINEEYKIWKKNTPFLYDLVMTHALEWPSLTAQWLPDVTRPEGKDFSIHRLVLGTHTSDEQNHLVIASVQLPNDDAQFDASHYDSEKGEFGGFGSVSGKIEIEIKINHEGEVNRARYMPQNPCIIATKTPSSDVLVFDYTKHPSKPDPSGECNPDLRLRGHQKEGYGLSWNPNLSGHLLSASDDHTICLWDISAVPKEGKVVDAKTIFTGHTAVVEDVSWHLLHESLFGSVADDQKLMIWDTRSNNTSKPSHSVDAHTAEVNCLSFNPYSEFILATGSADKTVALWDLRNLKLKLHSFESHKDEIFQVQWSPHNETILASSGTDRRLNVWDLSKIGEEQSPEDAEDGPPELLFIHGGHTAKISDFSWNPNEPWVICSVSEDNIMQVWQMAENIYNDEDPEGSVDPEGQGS

CCOc1cc2c(-c3cc(C)nn3C)cnc(NCc3c(F)ccc4c3CCO4)c2cn1 [Example 42, 4-(1,3-dimethyl-1H-pyrazol-5-yl)-6-ethoxy-N-((5-fluoro-2,3-dihydrobenzofuran-4-yl)methyl)-2,7-naphthyridin-1-amine]
IC50: 100 to 250 nM
